Data from PubChem BioAssay AID210 (DTP/NCI, 2004).
Values joined by “and” are separate entries in the source; they are usually repeats but may differ in a detail not shown here. Equal entries are not always repeated. Toxic doses and inconclusive results are not listed.

System: CD2F1 mice, ip Colon 26 adenocarcinoma, median survival T/C
Test: NCI In Vivo Anticancer Drug Screen. Data for tumor model Colon 26 Adenocarcinoma (intraperitoneal) in CD2F1 (CDF1) mice
Details: endpoint: median survival time, higher = longer survival
Experimental: The antitumor activity of compounds was measured in mice bearing transplantable tumors. Survival or tumor size were measured and the results are expressed as the measurement made in the treated group (T) divided by the measurement made in the vehicle treated control group (C). The tumor model used in this assay is Colon 26 Adenocarcinoma (intraperitoneal) in CD2F1 (CDF1) mice

[1] = dose: 6.25 mg/kg/injection, schedule: Q04DX003 (ip), vehicle: Klucel (hydroxypropylcellulose) (HPC)
[2] = dose: 12.5 mg/kg/injection, schedule: Q04DX003 (ip), vehicle: Klucel (hydroxypropylcellulose) (HPC)
[3] = dose: 50.0 mg/kg/injection, schedule: Q04DX003 (ip), vehicle: Klucel (hydroxypropylcellulose) (HPC)
[4] = dose: 22.5 mg/kg/injection, schedule: Q04DX002 (ip), vehicle: Klucel (hydroxypropylcellulose) (HPC)
[5] = dose: 45.0 mg/kg/injection, schedule: Q04DX002 (ip), vehicle: Klucel (hydroxypropylcellulose) (HPC)
[6] = dose: 90.0 mg/kg/injection, schedule: Q04DX002 (ip), vehicle: Klucel (hydroxypropylcellulose) (HPC)
[7] = dose: 12.5 mg/kg/injection, schedule: Q04DX003 (ip), vehicle: saline with Tween-80
[8] = dose: 25.0 mg/kg/injection, schedule: Q04DX003 (ip), vehicle: saline with Tween-80
[9] = dose: 50.0 mg/kg/injection, schedule: Q04DX003 (ip), vehicle: saline with Tween-80
[10] = dose: 100.0 mg/kg/injection, schedule: Q04DX003 (ip), vehicle: saline with Tween-80
[11] = dose: 200.0 mg/kg/injection, schedule: Q04DX003 (ip), vehicle: saline with Tween-80
[12] = dose: 400.0 mg/kg/injection, schedule: Q04DX003 (ip), vehicle: saline with Tween-80

S=c1nc[nH]c2nc[nH]c12
T/C [1]: 115 % of control
T/C [2]: 110 % of control
T/C [3]: 191 % of control and 252 % of control
T/C (dose: 100.0 mg/kg/injection, schedule: Q04DX003 (ip), vehicle: Klucel (hydroxypropylcellulose) (HPC)): 171 % of control
T/C (dose: 200.0 mg/kg/injection, schedule: Q04DX003 (ip), vehicle: Klucel (hydroxypropylcellulose) (HPC)): 86 % of control

C=C1C(=O)OC2CC1CCC1(C)OC1CCC(C)=CCCC2(C)O (configuration not stated)
T/C [4]: 105 % of control
T/C [5]: 97 % of control
T/C [6]: 89 % of control

CC1=CCCC(C)(O)C2CC(CCC3(C)OC3CC1)C(C)C(=O)O2 (configuration not stated)
T/C [4]: 98 % of control
T/C [5]: 100 % of control
T/C [6]: 100 % of control
T/C (dose: 180.0 mg/kg/injection, schedule: Q04DX002 (ip), vehicle: Klucel (hydroxypropylcellulose) (HPC)): 102 % of control

Cc1ccc(NC(=O)Oc2ccc(Br)cc2Br)c([N+](=O)[O-])c1
T/C [7]: 97 % of control
T/C [8]: 100 % of control
T/C [9]: 100 % of control
T/C [10]: 107 % of control
T/C [11]: 117 % of control
T/C [12]: 123 % of control

COc1cccc2c1C(=O)c1c(O)c3c(c(O)c1C2=O)C[C@@](O)(C(=O)CO)C[C@@H]3OC1CC([N+](C)(C)C)C(O)C(C)O1 (some centres not stated)
T/C (dose: 5.4 mg/kg/injection, schedule: Q04DX003 (ip), vehicle: water): 102 % of control
T/C (dose: 9.0 mg/kg/injection, schedule: Q04DX003 (ip), vehicle: water): 103 % of control
T/C (dose: 15.0 mg/kg/injection, schedule: Q04DX003 (ip), vehicle: water): 96 % of control
T/C (dose: 25.0 mg/kg/injection, schedule: Q04DX003 (ip), vehicle: water): 115 % of control

CNc1nc2c(N)ncnc2n1C1OC(CO)C(O)C1O (configuration not stated)
T/C (dose: 0.78 mg/kg/injection, schedule: Q04DX002 (ip), vehicle: saline): 92 % of control
T/C (dose: 1.56 mg/kg/injection, schedule: Q04DX002 (ip), vehicle: saline): 93 % of control
T/C (dose: 3.13 mg/kg/injection, schedule: Q04DX002 (ip), vehicle: saline): 92 % of control
T/C (dose: 6.25 mg/kg/injection, schedule: Q04DX002 (ip), vehicle: saline): 96 % of control
T/C (dose: 12.5 mg/kg/injection, schedule: Q04DX002 (ip), vehicle: saline): 102 % of control
T/C (dose: 25.0 mg/kg/injection, schedule: Q04DX002 (ip), vehicle: saline): 96 % of control

Nc1ncnc2c1ncn2C1OC(CO)C(O)C1O (configuration not stated)
T/C (dose: 50.0 mg/kg/injection, schedule: Q04DX002 (ip), vehicle: suspension in saline): 101 % of control
T/C (dose: 64.0 mg/kg/injection, schedule: Q04DX002 (ip), vehicle: Klucel (hydroxypropylcellulose) (HPC)): 90 % of control
T/C (dose: 100.0 mg/kg/injection, schedule: Q04DX002 (ip), vehicle: suspension in saline): 113 % of control
T/C (dose: 128.0 mg/kg/injection, schedule: Q04DX002 (ip), vehicle: Klucel (hydroxypropylcellulose) (HPC)): 93 % of control
T/C (dose: 200.0 mg/kg/injection, schedule: Q04DX002 (ip), vehicle: suspension in saline): 108 % of control
T/C (dose: 256.0 mg/kg/injection, schedule: Q04DX002 (ip), vehicle: Klucel (hydroxypropylcellulose) (HPC)): 91 % of control
T/C (dose: 400.0 mg/kg/injection, schedule: Q04DX002 (ip), vehicle: suspension in saline): 107 % of control
T/C (dose: 800.0 mg/kg/injection, schedule: Q04DX002 (ip), vehicle: suspension in saline): 122 % of control
T/C (dose: 1024.0 mg/kg/injection, schedule: Q04DX002 (ip), vehicle: Klucel (hydroxypropylcellulose) (HPC)): 98 % of control

O=C(CCCN1CCC(O)(c2cccc(C(F)(F)F)c2)CC1)c1ccc(F)cc1
T/C (dose: 3.12 mg/kg/injection, schedule: Q04DX003 (ip), vehicle: Klucel (hydroxypropylcellulose) (HPC)): 94 % of control
T/C [1]: 95 % of control
T/C [2]: 99 % of control
T/C (dose: 25.0 mg/kg/injection, schedule: Q04DX003 (ip), vehicle: Klucel (hydroxypropylcellulose) (HPC)): 97 % of control
T/C [3]: 105 % of control

COc1cccc2c1C(=O)c1c(O)c3c(c(O)c1C2=O)C[C@@](O)(/C(C)=N\O)C[C@@H]3OC1CC(N)C(O)C(C)O1 (some centres not stated)
T/C (dose: 10.0 mg/kg/injection, schedule: Q07DX002 (ip), vehicle: saline): 105 % of control
T/C (dose: 15.0 mg/kg/injection, schedule: Q07DX002 (ip), vehicle: saline): 110 % of control
T/C (dose: 23.0 mg/kg/injection, schedule: Q07DX002 (ip), vehicle: saline): 115 % of control
T/C (dose: 35.0 mg/kg/injection, schedule: Q07DX002 (ip), vehicle: saline): 119 % of control

O=P1(N(CCCl)CCCl)NCCCO1 (configuration not stated)
T/C (dose: 50.0 mg/kg/injection, schedule: Q03DX002 (ip), vehicle: saline): 106 % of control
T/C (dose: 51.0 mg/kg/injection, schedule: Q07DX003 (ip), vehicle: saline): 119 % of control
T/C (dose: 100.0 mg/kg/injection, schedule: Q03DX002 (ip), vehicle: saline): 117 % of control
T/C (dose: 105.0 mg/kg/injection, schedule: Q07DX003 (ip), vehicle: saline): 154 % of control
T/C (dose: 150.0 mg/kg/injection, schedule: Q07DX003 (ip), vehicle: saline): 165 % of control

Nc1nc2c(ncn2C2OC(CO)C(O)C2N)c(=O)[nH]1 (configuration not stated)
T/C (dose: 3.0 mg/kg/injection, schedule: Q04DX002 (ip), vehicle: saline with Tween-80): 95 % of control
T/C (dose: 6.0 mg/kg/injection, schedule: Q04DX002 (ip), vehicle: saline with Tween-80): 105 % of control
T/C (dose: 12.0 mg/kg/injection, schedule: Q04DX002 (ip), vehicle: saline with Tween-80): 88 % of control
T/C (dose: 24.0 mg/kg/injection, schedule: Q04DX002 (ip), vehicle: saline with Tween-80): 88 % of control
T/C (dose: 48.0 mg/kg/injection, schedule: Q04DX002 (ip), vehicle: saline with Tween-80): 96 % of control
T/C (dose: 96.0 mg/kg/injection, schedule: Q04DX002 (ip), vehicle: saline with Tween-80): 93 % of control

CN(C)CCNc1ccc(NCCN(C)C)c2c1C(=O)c1ccccc1C2=O
T/C (dose: 5.0 mg/kg/injection, schedule: Q01DX009 (ip), vehicle: acid diluted with saline): 115 % of control and 119 % of control
T/C (dose: 10.0 mg/kg/injection, schedule: Q01DX009 (ip), vehicle: acid diluted with saline): 108 % of control and 123 % of control and 202 % of control
T/C (dose: 40.0 mg/kg/injection, schedule: Q01DX009 (ip), vehicle: acid diluted with saline): 104 % of control and 105 % of control

Cc1ncc([N+](=O)[O-])n1CCSC(N)=O
T/C [7]: 94 % of control
T/C [8]: 124 % of control and 96 % of control
T/C [9]: 89 % of control
T/C [10]: 105 % of control and 95 % of control
T/C [11]: 90 % of control and 94 % of control
T/C [12]: 96 % of control

O=S(=O)(O)O
T/C (dose: 30.0 mg/kg/injection, schedule: Q01DX009 (ip), vehicle: saline with Tween-80): 100 % of control
T/C (dose: 44.0 mg/kg/injection, schedule: Q01DX009 (ip), vehicle: saline with Tween-80): 95 % of control
T/C (dose: 67.0 mg/kg/injection, schedule: Q01DX009 (ip), vehicle: saline with Tween-80): 101 % of control

CC[N+](CC)(CC)CC
T/C (dose: 1.56 mg/kg/injection, schedule: Q04DX003 (ip), vehicle: saline with Tween-80): 114 % of control
T/C (dose: 3.12 mg/kg/injection, schedule: Q04DX003 (ip), vehicle: saline with Tween-80): 107 % of control and 113 % of control
T/C (dose: 6.25 mg/kg/injection, schedule: Q04DX003 (ip), vehicle: saline with Tween-80): 111 % of control
T/C [7]: 175 % of control
T/C (dose: 12.5 mg/kg/injection, schedule: Q04DX003 (oral), vehicle: saline with Tween-80): 109 % of control
T/C (dose: 25.0 mg/kg/injection, schedule: Q04DX003 (oral), vehicle: saline with Tween-80): 105 % of control
T/C (dose: 50.0 mg/kg/injection, schedule: Q04DX003 (oral), vehicle: saline with Tween-80): 104 % of control
T/C (dose: 100.0 mg/kg/injection, schedule: Q04DX003 (oral), vehicle: saline with Tween-80): 94 % of control
